US20090314217A1, “APPARATUS AND METHOD FOR TREATING NON-HUMAN MAMMALS” (Under The Boardwalk Properties 8 (Proprietary) Limited, priority 2006, published 2009)
Like-named read-outs stand apart in the source and are kept apart here.

Legend:
[1] = Haematocrit in horses with billiary treated in apparatus 10; assay type: in vivo, horse; conditions: after two treatment sessions, increased from 31

O=[O+][O-] [ozone]
haematocrit [1]: 38%
discomfort during the treatment (five horses, during treatment): none of the horses appeared to be uncomfortable
respiration of the horses during treatment (five horses, during treatment): increased
motion marks in the rest of the ride (horse Moniq, after treatment on day 1 and day 2, motion 1 throughout day 1): no motion marks
muscle spasms found by physiotherapist (horse Moniq, day 2 and day 3 of race, lumbar spasms confirmed on day 1 before treatment): no muscle spasms
creatine kinase (horse Moniq, treated on day 1 and day 2 of race, lowered from 3873): 706
rider's report on second and third days of the race (horse Ophelia, dehydrated and fatigued on day 1, treated after first and second day): felt very strong and consistent
performance on third day of the race (horse Shamon, severe fatigue by day 2, treated in the afternoon of day 2, finished fifteenth): rode very well
CK and AST levels (horses that presented symptoms of tying-up): marked decrease
occurrence of muscle spasms (horses treated transdermally with ozone): significantly reduced
energy levels and stamina (horses with general fatigue from constant hard work and competition): marked improvement
motion marks or stiffness during the race (mare Pauli, pre-treatments before the race, history of gluteal muscle spasms and tying up, finished fourteenth): no motion marks or stiffness
owner's report on second and third days of the race (mare Viola, treated on first and second day): felt much stronger and looser
aspertine amino transferase (mare Viola, treated on first and second day, lowered from more than 2000): 1814 U/L
creatine kinase (mare Viola, tying up on day 1, treated on first and second day, lowered from 5896): 1599 IU/K
average heart-rate during treatment (non-accustomed horses, enclosure 42-45 °C, oxygen flow 1 l/min to ozonator): 42 beats per minute
muscle stiffness caused by long periods of intense exercise (preliminary study on endurance horses): benefit to reduce muscle stiffness
